Test results reported in US8455475B2 (Gruenenthal GmbH, priority 2009, dated 2013).

How the values were obtained:
[1] = target: T1, human B1R (bradykinin receptor 1) (Homo sapiens, UniProt P46663); assay: FLIPR Ca2+ assay (Fluo-4) on CHO K1 cells stably transfected with the human B1R gene (hB1R cells): % inhibition at 10 μM / IC50, agonist Lys-Des-Arg9-bradykinin; format: cell-based; conditions: for inhibition at 10 µM: CHO-K1, human B1R
T1 construct: expressed in transfected cells; host or cells: CHO K1 cells
T1 sequence (P46663 1-353): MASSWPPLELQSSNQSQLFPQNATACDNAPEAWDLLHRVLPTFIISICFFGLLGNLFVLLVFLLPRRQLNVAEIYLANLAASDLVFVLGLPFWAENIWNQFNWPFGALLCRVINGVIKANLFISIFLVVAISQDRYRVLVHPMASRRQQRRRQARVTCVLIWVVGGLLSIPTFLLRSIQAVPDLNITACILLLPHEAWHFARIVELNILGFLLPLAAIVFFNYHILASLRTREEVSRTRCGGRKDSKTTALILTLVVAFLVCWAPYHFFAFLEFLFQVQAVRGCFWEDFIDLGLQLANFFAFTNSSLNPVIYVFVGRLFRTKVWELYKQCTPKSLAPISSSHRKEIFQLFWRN
Experimental: The agonistic or antagonistic action of substances can be quantified on the bradykinin receptor 1 (B1R) of the human and rat species with ectopically expressing cell lines (CHO K1 cells) and with the aid of a Ca^2+-sensitive dyestuff (Fluo-4) in a fluorescent imaging plate reader (FLIPR). The figure in % activation is based on the Ca^2+ signal after addition of Lys-Des-Arg^9-bradykinin (0.5 nM) or Des-Arg^9-bradykinin (100 nM). Antagonists lead to a suppression of the Ca^2+ inflow after addition of the agonist. % inhibition compared with the maximum achievable inhibition is stated.
The agonistic or antagonistic action of substances can be determined on the bradykinin receptor 1 (B1R) of the human and rat species with the following assay. In accordance with this assay, the Ca^2+ inflow through the channel is quantified with the aid of a Ca^2+-sensitive dyestuff (type Fluo-4, Molecular Probes Europe BV, Leiden, Holland) in a fluorescent imaging plate reader (FLIPR, Molecular Devices, Sunnyvale, USA).
Chinese hamster ovary cells (CHO K1 cells) transfected stably with the human B1R gene (hB1R cells) or the B1R gene of the rat (rB1R cells) are used. For functional studies, these cells are plated out on black 96-well plates with a clear base (BD Biosciences, Heidelberg, Germany or Greiner, Frickenhausen, Germany) in a density of 20,000-35,000 cells/well. The cells are left overnight at 37° C. and 5% CO2 in culture medium (hB1R cells: Nutrient Mixture Ham's F12, Gibco Invitrogen GmbH, Karlsruhe, Germany or DMEM, Sigma-Aldrich, Taufkirchen, Germany; rB1R cells: D-MEM/F12, Gibco Invitrogen GmbH, Karlsruhe, Germany) with 10 vol. % FBS (foetal bovine serum, Gibco Invitrogen GmbH, Karlsruhe, Germany or PAN Biotech GmbH, Aidenbach, Germany). On the following day, the cells are loaded for 60 min at 37° C. with 2.13 μM Fluo-4 (Molecular Probes Europe BV, Leiden Holland) in HBSS buffer (Hank's buffered saline solution, Gibco Invitrogen GmbH, Karlsruhe, Germany) with 2.5 mM probenecid (Sigma-Aldrich, Taufkirchen, Germany) and 10 mM HEPES (Sigma-Aldrich, Taufkirchen, Germany). The plates are then washed 2× with HBSS buffer, and HBSS buffer which additionally contains 0.1% BSA (bovine serum albumin; Sigma-Aldrich, Taufkirchen, Germany), 5.6 mM glucose and 0.05% gelatine (Merck KGaA, Darmstadt, Germany) is added. After a further incubation of 20 minutes at room temperature, the plates are inserted into the FLIPR for the Ca^2+ measurement. Alternatively, the plates are washed with buffer A (15 mM HEPES, 80 mM NaCl, 5 mM KCl, 1.2 mM CaCl2, 0.7 mM MgSO4, 2 g/l glucose, 2.5 mM probenecid), buffer A is added and the plates are loaded with 2.5 μM Fluo-4 and 0.025% Pluronic F127 (Sigma-Aldrich, Taufkirchen, Germany). Thereafter, the cells are washed 2× with buffer A and incubated for 30 minutes at room temperature with buffer A, which additionally contains 0.05% BSA and 0.05% gelatine, and thereafter inserted into the FLIPR for the Ca^2+ measurement. The Ca^2+-dependent fluorescence is measured here before and after addition of substances (λex=488 nm, λem=540 nm). Quantification is by measurement of the highest fluorescence intensity (FC, fluorescence counts) over time.
The FLIPR protocol consists of 2 additions of substance. Test substances (10 μM) are first pipetted on to the cells and the Ca^2+ inflow is compared with the control (hB1R: Lys-Des-Arg^9-bradykinin>=50 nM; rB1R: Des-Arg^9-bradykinin 10 μM). This gives the result in % activation based on the Ca^2+ signal after addition of Lys-Des-Arg^9-bradykinin (>=50 nM) or Des-Arg^9-bradykinin (10 μM). After incubation for 10-20 minutes, Lys-Des-Arg^9-bradykinin (hB1R) or Des-Arg^9-bradykinin (rB1R) in the concentration of the EC80 is applied and the inflow of Ca^2+ is likewise determined. Antagonists lead to a suppression of the Ca^2+ inflow. % inhibition compared with the maximum achievable inhibition is calculated.
For determination of the IC50 value, the substances are added in various concentrations. […]

[2] = target: T2, rat B1R (bradykinin receptor 1) (Rattus norvegicus, UniProt P97583); assay: FLIPR Ca2+ assay (Fluo-4) on CHO K1 cells stably transfected with the B1R gene of the rat (rB1R cells): % inhibition at 10 μM / IC50, agonist Des-Arg9-bradykinin; format: cell-based; conditions: for inhibition at 10 µM: CHO-K1, rat B1R
T2 construct: expressed in transfected cells; host or cells: CHO K1 cells
T2 sequence (P97583 1-337): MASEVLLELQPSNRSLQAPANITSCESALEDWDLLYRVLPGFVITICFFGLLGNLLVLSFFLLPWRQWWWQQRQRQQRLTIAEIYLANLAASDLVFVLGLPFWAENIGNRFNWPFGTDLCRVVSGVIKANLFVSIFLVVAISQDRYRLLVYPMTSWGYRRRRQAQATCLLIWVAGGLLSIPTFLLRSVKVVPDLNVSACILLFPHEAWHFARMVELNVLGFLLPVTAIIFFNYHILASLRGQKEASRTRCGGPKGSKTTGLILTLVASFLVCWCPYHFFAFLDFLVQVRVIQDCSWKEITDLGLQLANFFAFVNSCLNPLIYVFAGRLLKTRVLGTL
How it was run: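 Loading with Fluo-4 occurs for 60 min at 37 °C, or alternatively in buffer A, before FLIPR measurement. Compounds are applied, incubated 10–20 min, and then the EC80 agonist is added. Antagonism appears as reduced peak Ca2+ signal relative to maximal inhibition.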

Row | SMILES | inhibition at 10 µM [1] | inhibition at 10 µM [2] | % Inhibition (human B1R) at 10 μM ([1]; human B1R, 10 µM) | % Inhibition (rat B1R) at 10 μM ([2]; rat B1R, 10 µM)
1 | COc1cc(C)c(S(=O)(=O)N[C@H]2CCCc3ccc(C(=O)N4CCC5(CC4)CCN(c4ccncc4)CC5)cc32)c(C)c1 [Example H-19, 4-methoxy-2,6-dimethyl-N-[(1S)-7-(9-pyridin-4-yl-3,9-diazaspiro[5.5]undecane-3-carbonyl)-1,2,3,4-tetrahydro-naphthalen-1-yl]-benzenesulfonic acid amide] | 99% | 102% | – | –
2 | CN1CCC(N2CCC3(CCN(C(=O)c4ccc5c(c4)[C@H](NC(=O)c4ccccc4Cl)CC5)CC3)CC2)CC1 [Example H-28, 2-chloro-N-[(1R)-6-[9-(1-methyl-piperidin-4-yl)-3,9-diazaspiro[5.5]undecane-3-carobnyl]-2,3-dihydro-1H-inden-1-yl]-benzamide] | 57% | 102% | – | –
3 | CN1CCN(C(=O)C2CCC3(CC2)CCN(C(=O)c2ccc4c(c2)[C@H](NC(=O)c2ccccc2Cl)CC4)CC3)CC1 [Example H-29, 2-chloro-N-[(1R)-6-[9-(4-methyl-piperazine-1-carbonyl)-3-azaspiro[5.5]undecane-3-carbonyl]-2,3-dihydro-1H-inden-1-yl]-benzamide] | 33% | 55% | – | –
4 | CC1(C)Cc2ccc(C(=O)N3CCC4(CCN(c5ccncc5)CC4)C3)cc2C1NC(=O)c1ccccc1Cl (stereo not drawn) [Example H-47, 2-chloro-N-[2,2-dimethyl-6-(8-pyridin-4-yl-3,8-diazaspiro[4.5]decane-3-carbonyl)-1,3-dihydro-inden-1-yl]-benzamide] | 99% | 101% | – | –
5 | O=C(NC1CCc2ccc(C(=O)N3CCC4(CCN(c5ccc(C(F)(F)F)cn5)CC4)C3)cc21)c1ccccc1Cl (stereo not drawn) [Example H-48, 2-chloro-N-[6-[8-[5-(trifluoromethyl)-pyridin-2-yl]-3,8-diazaspiro[4.5]decane-3-carbonyl]-2,3-dihydro-1H-inden-1-yl]-benzamide] | 63% | 97% | – | –
6 | O=C(NC1CCc2ccc(C(=O)N3CCC4(CCN(c5ccnc(C(F)(F)F)n5)CC4)C3)cc21)c1ccccc1Cl (stereo not drawn) [Example H-51, 2-chloro-N-[6-[8-[2-(trifluoromethyl)-pyrimidin-4-yl]-3,8-diazaspiro[4.5]decane-3-carbonyl]-2,3-dihydro-1H-inden-1-yl]-benzamide] | 98% | 96% | – | –
7 | O=C(N[C@@H]1CCc2ccc(C(=O)N3CCC4(CCC(C(=O)N[C@H]5CN6CCC5CC6)CC4)CC3)cc21)c1ccccc1Cl [Example H-52, N-[(5R)-1-Azabicyclo[2.2.2]octan-5-yl]-3-[(3R)-3-[(2-chloro-benzoyl)amino]-2,3-dihydro-1H-indene-5-carbonyl]-3-azaspiro[5.5]undecane-9-carboxylic acid amide] | 28% | 46% | – | –

Continued, values first:

Row | inhibition at 10 µM [1] | inhibition at 10 µM [2] | % Inhibition (human B1R) at 10 μM ([1]; human B1R, 10 µM) | % Inhibition (rat B1R) at 10 μM ([2]; rat B1R, 10 µM) | SMILES
8 | 100% | 105% | – | – | O=C(N[C@H]1CCc2ccc(C(=O)N3CCC4(CCN(c5ccncc5)CC4)C3)cc21)c1ccccc1Cl [Example H-20, 2-chloro-N-[(1S)-6-(8-pyridin-4-yl-3,8-diazaspiro[4.5]decane-3-carbonyl)-2,3-dihydro-1H-indecn-1-yl]-benzamide]
9 | 100% | 105% | – | – | O=C(N[C@@H]1CCc2ccc(C(=O)N3CCC4(CCN(c5ccncc5)CC4)C3)cc21)c1ccccc1Cl [Example H-21, 2-chloro-N-[(1R)-6-(8-pyridin-4-yl-3,8-diazaspiro[4.5]decane-3-carbonyl)-2,3-dihydro-1H-inden-1-yl]-benzamide]
10 | 46% | 101% | – | – | O=C(N[C@@H]1CCc2ccc(C(=O)N3CCC4(CCCN(c5ccncc5)C4)CC3)cc21)c1ccccc1Cl [Example H-26, 2-chloro-N-[(1R)-6-(8-pyridin-4-yl-3,8-diazaspiro[5.5]undecane-3-carbonyl)-2,3-dihydro-1H-inden-1-yl]-benzamide]
11 | 100% | 102% | – | – | O=C(N[C@@H]1CCc2ccc(C(=O)N3CC4(CCN(c5ccncc5)CC4)C3)cc21)c1ccccc1Cl [Example H-27, 2-chloro-N-[(1R)-6-(7-pyridin-4-yl-2,7-diazaspiro[3.5]nonane-2-carbonyl)-2,3-dihydro-1H-inden-1-yl]-benzamide]
12 | – | – | 99% | 100% | CN(C(=O)c1ccccc1Cl)C1CCc2ccc(C(=O)N3CCC4(CCN(c5ccncc5)CC4)C3)cc21 (stereo not drawn) [Example H-49, 2-chloro-N-methyl-N-[6-(8-pyridin-4-yl-3,8-diazaspiro[4.5]decane-3-carbonyl)-2,3-dihydro-1H-inden-1-yl]-benzamide]
13 | 98% | 98% | – | – | O=C(NC1CCc2ccc(C(=O)N3CCC4(CCN(c5ccc6cnccc6c5)CC4)C3)cc21)c1ccccc1Cl (stereo not drawn) [Example H-50, 2-chloro-N-[6-(8-isoquinolin-6-yl-3,8-diazaspiro[4.5]decane-3-carbonyl)-2,3-dihydro-1H-inden-1-yl]-benzamide]
14 | 100% | 104% | – | – | Cc1ccccc1C(=O)N[C@@H]1CCc2ccc(C(=O)N3CCC4(CCN(c5ccncc5)CC4)C3)cc21 [Example H-53, 2-Methyl-N-[(1R)-6-(8-pyridin-4-yl-3,8-diazaspiro[4.5]decane-3-carobnyl)-2,3-dihydro-1H-inden-1-yl]-benzamide]
15 | 98% | 102% | – | – | O=C(N[C@@H]1CCc2ccc(C(=O)N3CCCC4(CCN(c5ccncc5)CC4)C3)cc21)c1ccccc1Cl [Example H-54, 2-Chloro-N-[(1R)-6-(9-pyridin-4-yl-2,9-diazaspiro[5.5]undecane-2-carbonyl)-2,3-dihydro-1H-inden-1-yl]-benzamide]
